Results: US20160097044A1, “Antimicrobial Enzyme Fusions Reduce Resistance and Kill Intracellular Staphylococcus aureus” (The United States of America, as Represented by the …, priority 2014, published 2016)

Tests used:
[1] = system: intracellular S. aureus Newbould 305 in bovine mammary epithelial cell line (MAC-T); assay: Intracellular S. aureus eradication assay in MAC-T cells; type: cell-based; settings: 25 μg in 1 ml DMEM, 2.5 h
Source text: (§1) FIGS. 5a-5e depict peptidoglycan hydrolase-protein transduction domain (PGH-PTD) eradication of intracellular S. aureus in cultured cells. Cultured cells were infected, treated with gentamicin to kill extracellular S. aureus, and then treated with the peptidoglycan hydrolases indicated. All results are standardized to the gentamicin (GENT) only control. Nomenclature of the peptidoglycan hydrolase constructs is as in FIG. 1. Asterisks indicate statistical significance detected with single factor ANOVA (α=0.05) with paired t-test posthoc analyses α=0.05 adjusted with Sidák correction for multiple comparisons (for all cases p<0.01). […] Error bars represent SEM. […] Yellow staining in the combined panel represents intracellular co-localization (in a single plane as determined by z-stack analysis) of both S. aureus and K-L-PTD1 (blue arrow). […]
(§2) Three similar intracellular S. aureus eradication assays from three different labs were optimized for (A) a cultured bovine mammary epithelial cell line (MAC-T, Nexia Biotechnologies, Quebec, Canada; Almeida, supra), (B) primary C57BL/6 mouse-derived osteoblasts (mOBs) (McCall et al. 2008. J. Bone Miner. Res. 23: 30-40) or (C) human brain microvascular endothelial cells (hBMEC; Stins, supra). […] The cell lysate was subjected to serial dilution plating, and the resultant CFUs were counted and normalized to the gentamicin control for each assay. […]

[2] = system: intracellular S. aureus strain ISP479C in human brain microvascular endothelial cells (hBMEC); assay: Intracellular S. aureus eradication assay in hBMEC; type: cell-based; settings: 5 μg/ml, 1 h
Source text: as §1, §2

S. aureus Newbould 305 [3] = assay: Turbidity reduction assay; type: cell-based; settings: 1 μM enzyme, cells at OD600nm 1.0, FIG. 6a
Protocol: (§3) FIG. 6a depicts the specific activity of peptidoglycan hydrolase fusion constructs in vitro in a turbidity reduction assay with S. aureus Newbould 305 resuspended in lysis buffer to an OD600nm of 1.0 and treated with 1 μM final concentrations of each peptidoglycan hydrolase. The maximum specific activity for three experiments are represented as an average with SEM error bars. FIG. 6b depicts the bacterial burden in mice with mastitis treated with recombinant peptidoglycan hydrolases. Colony Forming Units (CFUs) from infected murine mammary glands following a single treatment with 50 μl of 25 μM peptidoglycan hydrolase (1.25 nmol). Each data point represents the average of duplicate bacterial platings. The horizontal bars represent the average CFU/mg for each group. FIG. 6c illustrates the TNFα response in mice with mastitis that were treated with peptidoglycan hydrolases. Data represents a minimum of 7 measurements in duplicate. Log TNFα was used for statistical analysis. Single asterisks indicate a significant difference from buffer control (p<0.05); double asterisks indicate a significant difference from the parental enzyme (p<0.05).
FIG. 7 depicts a turbidity reduction assay of select peptidoglycan hydrolases against S. aureus Newbould 305. Bacterial cells were resuspended in lysis buffer to an OD600nm of 1.0 and lysed with 1 μM final concentrations of each peptidoglycan hydrolase. The maximum rate of ΔOD of three experiments are represented as an average with error bars representing SEM. Double asterisks indicate significant difference from parental. Mean comparisons were performed with one way ANOVA (P=3.3×10^−5) with t test post hoc analysis with Sidák adjusted alpha (p<0.01).

[4] = system: intracellular S. aureus strain UAMS-1 in murine calvaria; assay: Ex vivo neonatal mouse calvaria intracellular eradication; type: cell-based
Protocol: (§4) Neonatal mouse whole calvaria were treated for 4 hours with chimeric peptidoglycan hydrolases or buffer alone, 24 hours post inoculation with GFP-expressing S. aureus. Calvaria were embedded in freeze media, sectioned, and subjected to fluorescence imaging. The image shown is a representative figure for triplicate sections of three separate calvaria. FIG. 8b depicts fluorescence intensity from these sections measured in ImageJ and defined as arbitrary fluorescence standardized to the untreated control. Error bars represent SEM of four replicate experiments. FIG. 8c depicts ex-vivo intracellular S. aureus eradication. Infected calvaria were homogenized and CFU were counted post treatment. Error bars represent SEM. FIG. 8d depicts a murine model of staphylococcal osteomyelitis. C57BL/6J mice were anesthetized and their femurs were surgically exposed. A trough was drilled through the bone cortex and the damaged bone sites were inoculated with 1×10^3 CFU S. aureus in agarose beads. After 24 hours, mice were treated (i.m. to site of infection) twice in a 24 h period with PBS or 5 mg/kg of triple fusion K-L or K-L-PTD1. The femurs were removed, homogenized, and plated to quantify the bacterial load. Bars indicate the average CFU recovered (N=6). […] Asterisks represent statistical significance as determined by one-way ANOVA followed by Tukey's posthoc test.
To examine the intracellular uptake and eradication in murine osteoblast-containing tissue samples, both ex vivo calvaria (skull cap), and in vivo femur injury models were tested. Calvaria were isolated from neonatal mice and infected with UAMS-1 strain of S. aureus (1×10^6 bacteria/calvaria) for 2 h at 37° C. in osteoblast growth medium in the absence of antibiotics. Following 3× washes with PBS, calvaria were exposed to 50 μg/ml of gentamicin for 15 min to kill extracellular bacteria and further cultured in gentamicin containing osteoblast growth media. After 24 h later, calvaria were treated with peptidoglycan hydrolases (5 μg/ml) or gentamicin only control for 2 h. Lysis buffer containing 0.05% trypsin and 0.25% Triton X-100 was used to homogenize the calvaria, the homogenates were quantitatively plated on LB agar plates, and the CFU were enumerated after 24 h. The data represents triplicate determinants of two separate experiments.
Calvaria were isolated, and infected as described above using GFP-tagged UAMS-1 strain of S. aureus. Two hours post-infection, calvaria were washed with PBS followed by a 15 minutes treatment with 50 μg/ml gentamicin to kill extracellular bacteria. 24 hours post-infection, calvaria were treated with 5 μg/ml peptidoglycan hydrolases or gentamicin only control for two hours and embedded in Tissue-Tek O.C.T compound (Sakura, Torrance, Calif.). […]

S. aureus = assay: Murine model of staphylococcal osteomyelitis (femur); type: in vivo, C57BL/6J mice; settings: 5 mg/kg i.m. at site of infection, twice in 24 h, N=6
Protocol: as §4, with “A trough was drilled through the bone cortex and the damaged bone sites were inoculated with 1×10^3 CFU S. aureus in agarose beads. After 24 hours, mice were treated (i.m. to site of infection) twice in a 24 h period with PBS or 5 mg/kg of triple fusion K-L or K-L-PTD1.” left out, “load.” for “load. Bars indicate the average CFU recovered (N=6).”
We utilized a previously described (Marriott, supra) murine model of staphylococcal osteomyelitis that reproduces the clinical and gross pathological phases of inflammatory bone diseases, such as human post-traumatic osteomyelitis. […] Asterisks represent statistical significance as determined by one-way ANOVA followed by Tukey's posthoc test.

S. aureus Newbould 305 [5] = assay: Murine model of mastitis, bacterial load; type: in vivo, C57BL6/SJL mice; settings: for bacterial load / clearance of mammary glands (in words): single 1.25 nmoles intramammary infusion 30 minutes post infection, 18 h
Protocol: as §3
To evaluate the efficacy of purified, individually administered peptidoglycan hydrolases in a murine model of bovine mastitis, female C57BL6/SJL mice were challenged by the intramammary route with 100 CFU S. aureus Newbould 305 in 50 μl buffer. A single 1.25 nmoles intramammary infusion of each desired peptidoglycan hydrolase (50 μl of a 25 μM solution) or 50 μl PBS was given 30 minutes post infection [with up to six glands treated per animal, each gland receiving a unique treatment] as described earlier (Schmelcher et al. 2012. Appl. Environ. Microbiol. 78:2297-2305; Kerr et al. 2001. Nat. Biotechnol. 19:66-70). Dams were euthanized 18 h post infusion, the mammary glands were aseptically dissected, and portions of the gland were used for determination of bacterial load and TNFα concentrations, as described previously (Schmelcher et al., supra).
Statistical analysis: The variables were analyzed as two-factor mixed models with Treatment as the factor and Mouse as random Blocks. This model […] within mouse correlations. Log(TNFα) was used. The variance grouping technique was used for log CFU and log TNFα to correct for variance heterogeneity. Means comparisons were done with Sidak adjusted p-values so that the experiment-wise error was 0.05. Log(TNFα) is back-transformed to the original units for graphing.

TNFα = assay: Murine model of mastitis, TNFα response; type: in vivo, C57BL6/SJL mice; settings: mice with mastitis
Protocol: as §3, with “(p<0.05). […]” for “(p<0.05).”
Statistical analysis: The variables were analyzed as two-factor mixed models with Treatment as the factor and Mouse as random Blocks. […]

Substance | intracellular S. aureus CFUs relative to gentamicin only control [1] | intracellular S. aureus CFUs relative to gentamicin only control [2] | turbidity reduction (in vitro lytic) activity (S. aureus Newbould 305 [3]) | live bacteria (CFU) recovered from calvaria ([4]; 5 μg/ml for 2 h, homogenized calvaria) | elimination of GFP-labeled intracellular S. aureus (fluorescence) ([4]; 5 μg/ml, 24 hours post-infection, sectioned calvaria) | bacterial load in femur compared to no treatment (S. aureus) | greater CFU reduction than triple fusion K-L in the mastitis model (S. aureus Newbould 305 [5]; in vivo, compared with triple fusion K-L) | bacterial load / clearance of mammary glands (in words) (S. aureus Newbould 305 [5]) | TNFα response (in words) (TNFα)
1-Sigma: commercial lysostaphin (Sigma-Aldrich, St. Louis, Mo.) | Neither commercial lysostaphin (1-Sigma; Sigma-Aldrich, St. Louis, Mo.) nor the C-terminal His6-tagged lysostaphin (construct 1) were able to decrease the intracellular CFUs | Neither commercial lysostaphin (1-Sigma; Sigma-Aldrich, St. Louis, Mo.) nor the C-terminal His6-tagged lysostaphin (construct 1) were able to decrease the intracellular CFUs |  |  |  |  |  |  | 
K-L-PTD1: triple fusion K-L with C-terminal PTD 1 (Antp 43-58); SEQ ID NO:53, protein SEQ ID NO:54 |  |  | reduced the in vitro activity | able to reduce the number of live bacteria recovered from sectioned calvaria | able to eliminate GFP-labeled intracellular S. aureus strain UAMS-1 from murine calvaria | significantly reduced bacterial load as compared to no treatment | ~3 orders of magnitude | clearance of the mammary gland to a level equivalent to that of lysostaphin alone or L-PTD1 | 
L-PTD1: lysostaphin-His6 with C-terminal PTD 1 (Antp 43-58); SEQ ID NO:9 |  |  | reduced the in vitro activity |  |  |  |  | further decreased the mean bacterial load | further decreased the mean bacterial load and TNFα concentration
